For this assay, the target named is p38a activated, mitogen-activated protein kinase-activated protein kinase 2 (MAPKAP-K2 or MK2) enzyme (Homo sapiens (Human), UniProt P49137). As to the kind of experiment: MK2 Omnia continuous-read kinase assay for compound potency. The assay is classed as biochemical. To be noted: [MK-2]=0.4 nM, [ATP]=10 μM, [ST3-Sox]=10 μM; room temperature. Summed up: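 p38a-activated MK2 (0.4 nM) with 10 μM ATP (apparent Km) and 10 μM S/T3-Sox peptide in Tris pH 7.5 buffer with MgCl2, EGTA and DTT. Fluorescence (ex360/em485) read continuously for 120 min at room temperature. IC50 from initial linear slopes; apparent kinact/KI from kobs of exponential progress-curve fits.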
Sequence of p38a activated, mitogen-activated protein kinase-activated protein kinase 2 (MAPKAP-K2 or MK2) enzyme (P49137 whole entry): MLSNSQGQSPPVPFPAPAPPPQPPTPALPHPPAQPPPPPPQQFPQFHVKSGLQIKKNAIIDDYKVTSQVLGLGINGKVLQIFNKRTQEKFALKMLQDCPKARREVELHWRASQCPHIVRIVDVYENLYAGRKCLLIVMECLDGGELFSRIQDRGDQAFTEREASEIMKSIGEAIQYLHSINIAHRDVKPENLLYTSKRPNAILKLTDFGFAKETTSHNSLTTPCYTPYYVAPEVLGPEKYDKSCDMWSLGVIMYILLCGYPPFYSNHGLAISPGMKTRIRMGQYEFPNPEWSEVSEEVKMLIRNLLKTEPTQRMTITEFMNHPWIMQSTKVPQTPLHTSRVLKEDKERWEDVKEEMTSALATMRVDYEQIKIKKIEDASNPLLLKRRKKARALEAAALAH
A word on the IC50: it is the concentration that gives 50% inhibition. Consider `C#Cc1cc(-c2ccc3c(ccc4sc5c(c43)NC[C@@H](C)NC5=O)n2)cc(N2CCCCC2)n1` [Example I-178, (R)-3-(2-ethynyl-6-(piperidin-1-yl)pyridin-4-yl)-10-methyl-9,10,11,12-tetrahydro-8H-[1,4]diazepino[5′,6′:4,5]thieno[3,2-f]quinolin-8-one], for which the concentration for half-maximal inhibition (IC50) stood at 0.185 µM. On to `C=Cc1nc(Cl)c(Cl)n1-c1ccc2c(ccc3sc4c(c32)NC[C@@H](C)NC4=O)n1` [Example I-251, (R)-3-(4,5-dichloro-2-vinyl-1H-imidazol-1-yl)-10-methyl-9,10,11,12-tetrahydro-8H-[1,4]diazepino[5′,6′:4,5]thieno[3,2-f]quinolin-8-one], for which the IC50 was 0.192 µM. `C#Cc1nc(CO)cc(-c2ccc3c(ccc4sc5c(c43)NC[C@@H](C)NC5=O)n2)n1` [Example I-86, (R)-3-(2-ethynyl-6-(hydroxymethyl)pyrimidin-4-yl)-10-methyl-9,10,11,12-tetrahydro-8H-[1,4]diazepino[5′,6′:4,5]thieno[3,2-f]quinolin-8-one]: the half-maximal inhibitory concentration (IC50) was 0.023 µM. Turning to `C=Cc1ncn(-c2ccc3c(ccc4sc5c(c43)NC[C@@H](C)NC5=O)n2)n1` [Example I-207, (R)-10-methyl-3-(3-vinyl-1H-1,2,4-triazol-1-yl)-9,10,11,12-tetrahydro-8H-[1,4]diazepino[5′,6′:4,5]thieno[3,2-f]quinolin-8-one], the IC50 stood at 0.026 µM. As for `C#Cc1nccc(-c2ccc3c(ccc4sc5c(c43)NC[C@@H](C)NC5=O)n2)c1C` [Example I-220, (R)-3-(2-ethynyl-3-methylpyridin-4-yl)-10-methyl-9,10,11,12-tetrahydro-8H-[1,4]diazepino[5′,6′:4,5]thieno[3,2-f]quinolin-8-one], the figure is 0.177 µM; as for `C=C(CN(C)C)c1cc(-c2ccc3c(ccc4sc5c(c43)NC[C@@H](C)NC5=O)n2)ccn1` [Example I-117, (R)-3-(2-(3-(dimethylamino)prop-1-en-2-yl)pyridin-4-yl)-10-methyl-9,10,11,12-tetrahydro-8H-[1,4]diazepino[5′,6′:4,5]thieno[3,2-f]quinolin-8-one], 0.006 µM. `[2H]C([2H])([2H])C(O)(c1cnc(C=C)cc1-c1ccc2c(ccc3sc4c(c32)NC[C@@H](C)NC4=O)n1)C([2H])([2H])[2H]` [Example I-258, (R)-3-(5-(2-hydroxypropan-2-yl-1,1,1,3,3,3-d6)-2-vinylpyridin-4-yl)-10-methyl-9,10,11,12-tetrahydro-8H-[1,4]diazepino[5′,6′:4,5]thieno[3,2-f]quinolin-8-one]: the half-inhibitory concentration (IC50) was 1 µM. With `C=Cc1cnn(C)c1-c1ccc2c(ccc3sc4c(c32)NC[C@@H](C)NC4=O)n1` [Example I-146, (R)-10-methyl-3-(1-methyl-4-vinyl-1H-pyrazol-5-yl)-9,10,11,12-tetrahydro-8H-[1,4]diazepino[5′,6′:4,5]thieno[3,2-f]quinolin-8-one], the IC50 was 0.499 µM. `C#Cc1cc(-c2ccc3c(ccc4sc5c(c43)NC[C@@H](C)NC5=O)n2)nc(C#CC(C)(C)N)n1` [Example I-67, (R)-3-(2-(3-amino-3-methylbut-1-yn-1-yl)-6-ethynylpyrimidin-4-yl)-10-methyl-9,10,11,12-tetrahydro-8H-[1,4]diazepino[5′,6′:4,5]thieno[3,2-f]quinolin-8-one]: the IC50 was found to be 0.038 µM. For `C=Cc1cc(-c2ccc3c(ccc4sc5c(c43)NC[C@@H](C)NC5=O)n2)cc(CN2CCOCC2)n1` [Example I-140, (R)-10-methyl-3-(2-(morpholinomethyl)-6-vinylpyridin-4-yl)-9,10,11,12-tetrahydro-8H-[1,4]diazepino[5′,6′:4,5]thieno[3,2-f]quinolin-8-one], the IC50 is 0.014 µM. On to `C[C@@H]1CNc2c(sc3ccc4nc(-c5cccc(Cl)n5)ccc4c23)C(=O)N1` [Example I-52, (R)-3-(6-chloropyridin-2-yl)-10-methyl-9,10,11,12-tetrahydro-8H-[1,4]diazepino[5′,6′:4,5]thieno[3,2-f]quinolin-8-one], for which the half-inhibitory concentration (IC50) came out at 0.116 µM. As for “(10R)-3-(2-(2,6-dimethylmorpholino)-6-vinylpyridin-4-yl)-10-methyl-9,10,11,12-tetrahydro-8H-[1,4]diazepino[5′,6′:4,5]thieno[3,2-f]quinolin- [Example I-201]”, the figure is 0.073 µM; as for `C/C=C/c1cc(-c2ccc3c(ccc4sc5c(c43)NC[C@@H](C)NC5=O)n2)ccn1` [Example I-113, (R,E)-10-methyl-3-(2-(prop-1-en-1-yl)pyridin-4-yl)-9,10,11,12-tetrahydro-8H-[1,4]diazepino[5′,6′:4,5]thieno[3,2-f]quinolin-8-one], 0.053 µM. As to `C#Cc1ncc(COCC)c(-c2ccc3c(ccc4sc5c(c43)NC[C@@H](C)NC5=O)n2)n1` [Example I-12, (R)-3-(5-(ethoxymethyl)-2-ethynylpyrimidin-4-yl)-10-methyl-9,10,11,12-tetrahydro-8H-[1,4]diazepino[5′,6′:4,5]thieno[3,2-f]quinolin-8-one], the IC50 worked out at 0.087 µM. Take `C[C@@H]1CNc2c(sc3ccc4nc(-n5ccc(Cl)n5)ccc4c23)C(=O)N1` [Example I-165, (R)-3-(3-chloro-1H-pyrazol-1-yl)-10-methyl-9,10,11,12-tetrahydro-8H-[1,4]diazepino[5′,6′:4,5]thieno[3,2-f]quinolin-8-one]: the concentration for half-maximal inhibition (IC50) came to 0.081 µM. `C#Cc1cc(-c2ccc3c(ccc4sc5c(c43)NC[C@@H](C)NC5=O)n2)cc(N2CCC(F)(F)CC2)n1` [Example I-182, (R)-3-(2-(4,4-difluoropiperidin-1-yl)-6-ethynylpyridin-4-yl)-10-methyl-9,10,11,12-tetrahydro-8H-[1,4]diazepino[5′,6′:4,5]thieno[3,2-f]quinolin-8-one]: the IC50 worked out at 1 µM.

For the compound `C=Cc1cc(-c2ccc3c(ccc4sc5c(c43)NC[C@@H](C)NC5=O)n2)cc(N2CCNCC2)n1` [Example I-175, (R)-10-methyl-3-(2-(piperazin-1-yl)-6-vinylpyridin-4-yl)-9,10,11,12-tetrahydro-8H-[1,4]diazepino[5′,6′:4,5]thieno[3,2-f]quinolin-8-one], the IC50 was 0.01 µM. With `C[C@@H]1CNc2c(sc3ccc4nc(-c5cc(/C=C/CN(C)C)ncn5)ccc4c23)C(=O)N1` [Example I-115, (R,E)-3-(6-(3-(dimethylamino)prop-1-en-1-yl)pyrimidin-4-yl)-10-methyl-9,10,11,12-tetrahydro-8H-[1,4]diazepino[5′,6′:4,5]thieno[3,2-f]quinolin-8-one], the IC50 was determined as 0.037 µM. Consider `C[C@@H]1CNc2c(sc3ccc4nc(-c5nc(Cl)ncc5COC5(C)COC5)ccc4c23)C(=O)N1` [Example I-28, (R)-3-(2-chloro-5-(((3-methyloxetan-3-yl)oxy)methyl)pyrimidin-4-yl)-10-methyl-9,10,11,12-tetrahydro-8H-[1,4]diazepino[5′,6′:4,5]thieno[3,2-f]quinolin-8-one], for which the concentration for half-maximal inhibition (IC50) was 0.018 µM. As for `C=Cc1csc(-c2ccc3c(ccc4sc5c(c43)NC[C@@H](C)NC5=O)n2)n1` [Example I-149, (R)-10-methyl-3-(4-vinylthiazol-2-yl)-9,10,11,12-tetrahydro-8H-[1,4]diazepino[5′,6′:4,5]thieno[3,2-f]quinolin-8-one], the figure is 0.095 µM. For `C=Cc1cc(-c2ccc3c(ccc4sc5c(c43)NC[C@@H](C)NC5=O)n2)nc(C#CC(C)(C)N)n1` [Example I-66, (R)-3-(2-(3-amino-3-methylbut-1-yn-1-yl)-6-vinylpyrimidin-4-yl)-10-methyl-9,10,11,12-tetrahydro-8H-[1,4]diazepino[5′,6′:4,5]thieno[3,2-f]quinolin-8-one], the 50% inhibitory concentration (IC50) amounted to 0.009 µM.

For `C[C@@H]1CNc2c(sc3ccc4nc(-c5cc(Cl)nc(C#CC(C)(C)N)n5)ccc4c23)C(=O)N1` [Example I-64, (R)-3-(2-(3-amino-3-methylbut-1-yn-1-yl)-6-chloropyrimidin-4-yl)-10-methyl-9,10,11,12-tetrahydro-8H-[1,4]diazepino[5′,6′:4,5]thieno[3,2-f]quinolin-8-one], the IC50 worked out at 0.004 µM. For the compound `C=Cc1cc(-c2ccc3c(ccc4sc5c(c43)NC[C@@H](C)NC5=O)n2)cc(N(C)CCOC)n1` [Example I-237, (R)-3-(2-((2-methoxyethyl)(methyl)amino)-6-vinylpyridin-4-yl)-10-methyl-9,10,11,12-tetrahydro-8H-[1,4]diazepino[5′,6′:4,5]thieno[3,2-f]quinolin-8-one], the IC50 turned out to be 0.01 µM.

Regarding `C=Cc1ncc(OC)c(-c2ccc3c(ccc4sc5c(c43)NC[C@@H](C)NC5=O)n2)n1` [Example I-32, (R)-3-(5-methoxy-2-vinylpyrimidin-4-yl)-10-methyl-9,10,11,12-tetrahydro-8H-[1,4]diazepino[5′,6′:4,5]thieno[3,2-f]quinolin-8-one], the half-inhibitory concentration (IC50) was 0.245 µM. To `C=Cc1cc(-c2ccc3c(ccc4sc5c(c43)NC[C@@H](C)NC5=O)n2)c(C)cn1` [Example I-109, (R)-10-methyl-3-(5-methyl-2-vinylpyridin-4-yl)-9,10,11,12-tetrahydro-8H-[1,4]diazepino[5′,6′:4,5]thieno[3,2-f]quinolin-8-one] belongs 0.004 µM; to `C[C@@H]1CNc2c(sc3ccc4nc(-c5nc(Cl)ncc5C(F)(F)F)ccc4c23)C(=O)N1` [Example I-4, (R)-3-(2-chloro-5-(trifluoromethyl)pyrimidin-4-yl)-10-methyl-9,10,11,12-tetrahydro-8H-[1,4]diazepino[5′,6′:4,5]thieno[3,2-f]quinolin-8-one], 0.001 µM. For the compound `C#Cc1ncc(CO)c(-c2ccc3c(ccc4sc5c(c43)NC[C@@H](C)NC5=O)n2)n1` [Example I-79, (R)-3-(2-ethynyl-5-(hydroxymethyl)pyrimidin-4-yl)-10-methyl-9,10,11,12-tetrahydro-8H-[1,4]diazepino[5′,6′:4,5]thieno[3,2-f]quinolin-8-one], the half-inhibitory concentration (IC50) amounted to 0.568 µM.
